{"source": "paper PMC3922537", "about": "(Organic & biomolecular chemistry, 2013)", "tested_on": "CYP76AH4", "assay": "in vitro hydroxylation assay of recombinant enzyme, GC-MS", "format": "cell-based, Salvia rosmarinus", "conditions": "C12-hydroxylation to ferruginol; enzyme preparation not described in main text"}
{"compound": "CC(C)c1ccc2c(c1)CC[C@H]1C(C)(C)CCC[C@]21C", "note": "[compound 3, abietatriene]", "values": [{"measurement": "Km", "result": "25 ± 6", "unit": "µM"}]}
